Assay results: patent publication EP1151753B1, “PREVENTIVE AND THERAPEUTIC AGENTS FOR ARTERIOSCLEROSIS” (CCI CORPORATION, priority 1999, dated 2000)

Experiment: Biochemical test of blood and measurement of body weight, cholesterol-loaded rabbit model
Format: in vivo, New Zealand White (NZW) type rabbits
Conditions: cholesterol-loaded NZW rabbits
Experimental: Now, the pharmacogenic effect of the agent of this invention for preventing and curing arteriosclerosis will be described specifically below with reference to a pharmacological test using high cholesterol-loaded rabbits and the WHHL (Watanabe heritable hyperlipidemic) rabbits forming a model of the familial high-cholesterol blood disease. The data were wholly reported by the average ± standard error (SE) and the significant differences among separate groups were determined by the Student's t-test. The risk factor, p < 0.05, was rated as forming a significance of difference.
In the test, female and male New Zealand White (NZW) type rabbits (SPF: Kitayama Labels K.K.) which were seven weeks old at the time of arrival at the laboratory were subjected to quarantine and two weeks' domestication and visually inspected as to the general condition and, after the absence of abnormality was confirmed, put to use. The body weights at the time of starting administration (at the age of nine weeks) were in the range of 1.8 - 2.2 kg in the case of male rabbits and in the range of 1.6 - 2.0 kg in the case of female rabbits. Throughout the entire duration of the test, the animals were raised as accommodated one each in hanger cages of aluminum installed on a stainless steel rack inside a clean feeding chamber set at a temperature in the range of 20 - 26°, a relative humidity in the range of 40 - 70%, a number of ventilations in the range of 10 - 20 turns/hour, and an illumination time within the range of 12 hours (7.00 - 19:00). They were fed on a commercially available radioactively sterilized solid feed (a product containing 1% of cholesterol, made by Oriental Kobo K.K. and sold under the product code of "RC4") and they were left freely drinking the tap water delivered by an automatic water supplying device.
The dosage of TMG was set at 800 mg/head/day. The TMG was solved in reagent grade ethanol. The produced solution was sprayed on the 1% cholesterol-containing feed and the wet feed was left drying in the air. A mixed feed was prepared so as to contain 800 mg of TMG per 100 g of the feed. The mixed feed was given to the rabbits every morning at a rate of 100 g/day per head for 12 weeks for the sake of attaining oral consumption of the TMG. The feed for the control group was obtained by spraying ethanol alone on a feed containing 1% cholesterol and air-drying the wet feed. It was given to the rabbits of the control group at a rate of 100 g/day per heat for 12 weeks.
A control group and a TMG-administration group were formed; the control group of a total of six heads composed of three males and three females and the TMG-administration group of a total of eight heads composed of four males and four females. These animals were apportioned to the two groups randomly and nevertheless elaborately so as to avoid confusion of the children of one brood in either group to the fullest possible extent and equalize as much as permissible the average body weights and the average total cholesterol numbers in blood serum of the two groups with the body weights and the total cholesterol numbers found at the time of completion of the domestication.
About 6 ml of blood was taken from the heart or the auricular artery of a rabbit experiencing 12 hours' fast prior to the start of the administration, within 4 and 8 weeks of undergoing administration, and on the final day of administration (12th week). The blood was centrifuged to separate blood serum and the blood serum was analyzed for the items shown in Table 1 by the use of an automatic analyzer (made by Hitachi. Ltd. And sold under the product code of "736-20"). The body weight of each rabbit was measured at the rate of once a week throughout the entire duration of the administration.

[1] = blood serum, TMG 800 mg/head/day in feed, 12th week of administration, average ± SE
[2] = TMG 800 mg/head/day for 12 weeks

Cc1c(C)c2c(c(C)c1O)CCC(C)(C[C@H]1O[C@H](CO)[C@@H](O)[C@H](O)[C@H]1O)O2 (stereo partly drawn) [TMG, 2-(α-D-glucopyranosyl)methyl-2,5,7,8-tetramethyl chroman-6-ol]
ALB [1]: 2.3 ± 0.1 g/dL | ALP [1]: 174 ± 15 mU/ml | ChE [1]: 0.35 ± 0.06 U/ml | GOT [1]: 19.7±2.2 mU/ml | GPT [1]: 72.9 ± 9.1 mU/ml | LDH [1]: 147 ± 31 mU/ml | PL [1]: 851 ± 42 mg/dL | T-CHO [1]: 2628 ± 148 mg/dL | TG [1]: 250 ± 76 mg/dL | activity of lowering the blood serum lipids (T-CHO, TG, PL, LDL-CHO) [2]: no activity | biochemical test of blood [2]: no sign of abnormality | Body weight (TMG 800 mg/head/day in feed, 12th week of administration, average ± SE): 2.89 ± 0.11 kg | rise of the GOT, an index of the development of hepatopathy (TMG 800 mg/head/day, versus control group): significantly repressing the injury
